Key:
[1] = biological target: T1, Organic cation/carnitine transporter 2 (Rattus norvegicus, UniProt O70594); experiment: Inhibition of rat kidney brush border membrane OCTN2 transporter assessed as [3H]carnitine uptake after 10 mins
T1 sequence (O70594 whole entry): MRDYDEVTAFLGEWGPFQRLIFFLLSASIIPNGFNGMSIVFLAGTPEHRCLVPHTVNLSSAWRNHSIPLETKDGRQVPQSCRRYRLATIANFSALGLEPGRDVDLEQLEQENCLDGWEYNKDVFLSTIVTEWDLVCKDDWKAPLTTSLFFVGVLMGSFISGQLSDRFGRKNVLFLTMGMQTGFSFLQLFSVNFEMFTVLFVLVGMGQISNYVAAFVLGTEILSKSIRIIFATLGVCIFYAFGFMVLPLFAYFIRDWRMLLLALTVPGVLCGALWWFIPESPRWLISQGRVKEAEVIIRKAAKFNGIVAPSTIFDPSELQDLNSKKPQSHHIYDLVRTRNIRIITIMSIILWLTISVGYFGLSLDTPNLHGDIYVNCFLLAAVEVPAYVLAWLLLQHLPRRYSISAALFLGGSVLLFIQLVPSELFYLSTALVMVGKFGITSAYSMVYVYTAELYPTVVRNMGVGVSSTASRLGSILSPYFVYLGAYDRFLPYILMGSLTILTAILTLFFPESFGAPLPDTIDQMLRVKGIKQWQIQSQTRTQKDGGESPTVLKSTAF

[2] = Metabolic stability in human plasma assessed as biotransformation after 24 hrs relative to unaltered compound
[3] = Metabolic stability in human RBC assessed as biotransformation after 24 hrs relative to unaltered compound; type: ADME, cell-based, Erythrocyte; conditions: red blood cells (RBC), read-out: Activity
[4] = Metabolic stability in human saliva assessed as biotransformation after 24 hrs relative to unaltered compound; type: ADME; conditions: read-out: Activity
[5] = Metabolic stability in phosphate buffer saline assessed as biotransformation after 24 hrs relative to unaltered compound; type: ADME; conditions: phosphate buffered saline; read-out: Activity
[6] = biological target: T2, OCTN2 (organic cation/carnitine transporter 2) (Rattus norvegicus, UniProt O70594); experiment: Inhibition of rat kidney brush border membrane OCTN2 transporter assessed as [3H]carnitine uptake after 30 mins relative to control; parameters: scale not given: the % may be the effect or the level left; conditions: probe [3H]carnitine, read-out: Activity
T2 sequence (O70594 whole entry): T1 sequence (O70594 whole entry)

[7] = Metabolic stability in human RBC assessed as nitrite or nitrate production after 24 hrs; type: ADME, cell-based; conditions: erythrocyte

Row | Structure (SMILES) | IC50 [1] [µM] | metabolised at 24 h [2] [%] | metabolised at 24 h [3] [%] | metabolised at 24 h [4] [%] | degraded at 24 h [5] [%] | activity at 0.5 h [6] [%] | Activity [7] [nmol/mL]
1 | C[N+](C)(C)C[C@H](CC(=O)O)OC(=O)CCCCCO[N+](=O)[O-].[Cl-] | 76 | 45 | 100 | 100 | 100 | 20 | 23
2 | CCOC(=O)C[C@@H](C[N+](C)(C)C)OC(=O)CCCCCO[N+](=O)[O-].[Cl-] |  | 100 | 100 | 100 | 100 | 1.5 | 22
3 | CCOC(=O)C[C@@H](C[N+](C)(C)C)OC(=O)CCCCCCCCCCCCCCCO[N+](=O)[O-].[Cl-] | 443 | 100 | 73 | 75 | 100 | 3.1 | 40
4 | C[N+](C)(C)C[C@H](CC(=O)O)OC(=O)CCCCCCCCCCCCCCCO[N+](=O)[O-].[Cl-] | 53 | 100 | 56 | 100 | 100 | 16.3 | 62

— ChEMBL document CHEMBL1143952, “Synthesis and characterization of carnitine nitro-derivatives” (Bioorg Med Chem, 2008)
